Source: US12552792B2, “Solid forms of an FGFR inhibitor and processes for preparing the same” (Incyte Corporation, priority 2018, dated 2026)
Converted amounts (≈) assume the structure as drawn. Read-outs that look alike come from different tables or passages of the source.

Key:
Type in all cases: physicochemical
[1] = Conversion of Form II to Form I in different solvents
Description: The Form II was converted to Form I in acetonitrile, ethanol and IPA respectively as described in Table 13.

[2] = Solubility measurement of Form I in solvent systems (HPLC); conditions: for solubility at 24 h: organic solvent or mixture, thermodynamic from solid, stirred 24 h, HPLC; for solubility (in words): 25° C.
[3] = as above; conditions: organic solvent or mixture, thermodynamic from solid
Protocol: Form I waw found to be completely soluble (>50 mg/mL) in many solvents including DMF (50° C.), DCM, chloroform, DMSO, and DCM/MeOH (9/1) at 25° C. and 50° C.

With `CCN1C(=O)N(c2c(F)c(OC)cc(OC)c2F)Cc2cnc3[nH]c(CN4CCOCC4)cc3c21` [Form II] the “Conversion result (solid form)” value ([1]; 18 mg Form II in EtOH (0.7 mL)) was “Form I”, the “Conversion result (solid form)” value ([1]; 18 mg Form II in IPA (0.7 mL)) was “Form I” and the “Conversion result (solid form)” value ([1]; 18 mg Form II in MeCN (0.7 mL)) was “Form I”. It also gave a solubility at 24 h ([2]; 25 °C, solvent Dichloromethane, read-out: Solubility at 25° C.) greater than 50000 µg/mL.
`CCN1C(=O)N(c2c(F)c(OC)cc(OC)c2F)Cc2cnc3[nH]c(CN4CCOCC4)cc3c21` [Form VIII] gave a solubility at 24 h ([3]; 25 °C, solvent Acetone, stirred 24 h, HPLC, read-out: Solubility at 25° C.) of 2680 µg/mL (≈ 5.5 mM).
`CCN1C(=O)N(c2c(F)c(OC)cc(OC)c2F)Cc2cnc3[nH]c(CN4CCOCC4)cc3c21` [Form I] gave a solubility at 24 h ([3]; 25 °C, solvent 1-Propanol, stirred 24 h, HPLC, read-out: Solubility at 25° C.) of 1160 µg/mL (≈ 2.38 mM), a solubility at 24 h ([3]; 25 °C, solvent DCM/MeOH (9/1), stirred 24 h, HPLC, read-out: Solubility at 25° C.) greater than 50000 µg/mL and a solubility at 24 h ([3]; 25 °C, solvent IPAc, stirred 24 h, HPLC, read-out: Solubility at 25° C.) of 880 µg/mL (≈ 1.81 mM). The solubility at 24 h ([3]; 25 °C, solvent Toluene, stirred 24 h, HPLC, read-out: Solubility at 25° C.) was 450 µg/mL (≈ 0.923 mM), the solubility at 24 h ([3]; 50 °C, solvent 1-Propanol, stirred 24 h, HPLC, read-out: Solubility at 50° C.) was 2500 µg/mL (≈ 5.13 mM) and the solubility at 24 h ([3]; 50 °C, solvent Chloroform, stirred 24 h, HPLC, read-out: Solubility at 50° C.) was greater than 50000 µg/mL. For the same molecule, the solubility at 24 h ([3]; 50 °C, solvent Dichloromethane, stirred 24 h, HPLC, read-out: Solubility at 50° C.) was greater than 50000 µg/mL, the solubility at 24 h ([3]; 50 °C, solvent EtOAc, stirred 24 h, HPLC, read-out: Solubility at 50° C.) was 2260 µg/mL (≈ 4.64 mM) and the solubility at 24 h ([3]; 50 °C, solvent MeCN, stirred 24 h, HPLC, read-out: Solubility at 50° C.) was 8390 µg/mL (≈ 17.2 mM). It also gave a solubility at 24 h ([3]; 50 °C, solvent Methanol, stirred 24 h, HPLC, read-out: Solubility at 50° C.) of 2050 µg/mL (≈ 4.21 mM), a solubility at 24 h ([3]; DMF (50° C.), DCM, chloroform, DMSO, DCM/MeOH (9/1) at 25° C. and 50° C., read-out: completely soluble) greater than 50000 µg/mL and a solubility ([3]; DMSO, 25° C., slurry obtained after stirring the clear solution of 60 mg Form I in 1 mL DMSO, read-out: solubility of the saturated solution) of 6130 µg/mL (≈ 12.6 mM). It also gave a solubility at 24 h ([2]; 25 °C, solvent 2-Methoxyethanol, read-out: Solubility at 25° C.) of 15300 µg/mL (≈ 31.3 mM), a solubility at 24 h ([2]; 25 °C, solvent Chloroform, read-out: Solubility at 25° C.) greater than 50000 µg/mL and a solubility at 24 h ([2]; 25 °C, solvent DMF, read-out: Solubility at 25° C.) of 42000 µg/mL (≈ 86.1 mM). It also gave a solubility at 24 h ([2]; 25 °C, solvent DMSO, read-out: Solubility at 25° C.) greater than 50000 µg/mL, a solubility at 24 h ([2]; 25 °C, solvent EtOH, read-out: Solubility at 25° C.) of 970 µg/mL (≈ 1.99 mM) and a solubility at 24 h ([2]; 25 °C, solvent IPA/water (4/1), read-out: Solubility at 25° C.) of 5350 µg/mL (≈ 11 mM). The solubility at 24 h ([2]; 25 °C, solvent IPA, read-out: Solubility at 25° C.) was 560 µg/mL (≈ 1.15 mM), the solubility at 24 h ([2]; 25 °C, solvent Isobutyl acetate, read-out: Solubility at 25° C.) was 460 µg/mL (≈ 0.944 mM) and the solubility at 24 h ([2]; 25 °C, solvent MEK, read-out: Solubility at 25° C.) was 1200 µg/mL (≈ 2.46 mM). For the same molecule, the solubility at 24 h ([2]; 25 °C, solvent MeCN, read-out: Solubility at 25° C.) was 5390 µg/mL (≈ 11.1 mM), the solubility at 24 h ([2]; 25 °C, solvent THF, read-out: Solubility at 25° C.) was 4110 µg/mL (≈ 8.43 mM) and the solubility at 24 h ([2]; 25 °C, solvent n-BuOH, read-out: Solubility at 25° C.) was 820 µg/mL (≈ 1.68 mM). The solubility at 24 h ([2]; 50 °C, solvent 2-Methoxyethanol, read-out: Solubility at 50° C.) was 20500 µg/mL (≈ 42 mM), the solubility at 24 h ([2]; 50 °C, solvent Acetone, read-out: Solubility at 50° C.) was 6670 µg/mL (≈ 13.7 mM) and the solubility at 24 h ([2]; 50 °C, solvent DCM/MeOH (9/1), read-out: Solubility at 50° C.) was greater than 50000 µg/mL. It also gave a solubility at 24 h ([2]; 50 °C, solvent DMF, read-out: Solubility at 50° C.) greater than 50000 µg/mL, a solubility at 24 h ([2]; 50 °C, solvent DMSO, read-out: Solubility at 50° C.) greater than 50000 µg/mL and a solubility at 24 h ([2]; 50 °C, solvent EtOH, read-out: Solubility at 50° C.) of 2730 µg/mL (≈ 5.6 mM). For the same molecule, the solubility at 24 h ([2]; 50 °C, solvent Ethyl formate, read-out: Solubility at 50° C.) was 15300 µg/mL (≈ 31.4 mM), the solubility at 24 h ([2]; 50 °C, solvent IPA/water (4/1), read-out: Solubility at 50° C.) was 8770 µg/mL (≈ 18 mM) and the solubility at 24 h ([2]; 50 °C, solvent IPA, read-out: Solubility at 50° C.) was 1370 µg/mL (≈ 2.81 mM). It also gave a solubility at 24 h ([2]; 50 °C, solvent IPAc, read-out: Solubility at 50° C.) of 1330 µg/mL (≈ 2.73 mM), a solubility at 24 h ([2]; 50 °C, solvent Isobutyl acetate, read-out: Solubility at 50° C.) of 580 µg/mL (≈ 1.19 mM) and a solubility at 24 h ([2]; 50 °C, solvent MEK, read-out: Solubility at 50° C.) of 3220 µg/mL (≈ 6.61 mM). For the same molecule, the solubility at 24 h ([2]; 50 °C, solvent MIBK, read-out: Solubility at 50° C.) was 1120 µg/mL (≈ 2.3 mM), the solubility at 24 h ([2]; 50 °C, solvent MTBE, read-out: Solubility at 50° C.) was 190 µg/mL (≈ 0.39 mM) and the solubility at 24 h ([2]; 50 °C, solvent Toluene, read-out: Solubility at 50° C.) was 820 µg/mL (≈ 1.68 mM). For the same molecule, the solubility at 24 h ([2]; 50 °C, solvent n-BuOH, read-out: Solubility at 50° C.) was 1650 µg/mL (≈ 3.38 mM), the “solubility (in words)” value ([2]; MTBE, toluene, IPAc, methanol, and IPA) was “sparingly soluble” and the “solubility (in words)” value ([2]; water, heptane and hexane) was “almost insoluble”.
`CCN1C(=O)N(c2c(F)c(OC)cc(OC)c2F)Cc2cnc3[nH]c(CN4CCOCC4)cc3c21` [Form VI] showed a solubility at 24 h ([2]; 25 °C, solvent Methanol, read-out: Solubility at 25° C.) of 640 µg/mL (≈ 1.31 mM).
For `CCN1C(=O)N(c2c(F)c(OC)cc(OC)c2F)Cc2cnc3[nH]c(CN4CCOCC4)cc3c21` [Form VII], the solubility at 24 h ([3]; 25 °C, solvent MIBK, stirred 24 h, HPLC, read-out: Solubility at 25° C.) was 430 µg/mL (≈ 0.882 mM).
`CCN1C(=O)N(c2c(F)c(OC)cc(OC)c2F)Cc2cnc3[nH]c(CN4CCOCC4)cc3c21` [Form XIII] showed a solubility at 24 h ([2]; 50 °C, solvent THF, read-out: Solubility at 50° C.) of 10000 µg/mL (≈ 20.6 mM).
For `CCN1C(=O)N(c2c(F)c(OC)cc(OC)c2F)Cc2cnc3[nH]c(CN4CCOCC4)cc3c21` [Form III], the solubility at 24 h ([3]; 50 °C, solvent 1,4-Dioxane, stirred 24 h, HPLC, read-out: Solubility at 50° C.) was 5690 µg/mL (≈ 11.7 mM) and the solubility at 24 h ([2]; 25 °C, solvent 1,4-Dioxane, read-out: Solubility at 25° C.) was 2230 µg/mL (≈ 4.57 mM).
Work on `CCN1C(=O)N(c2c(F)c(OC)cc(OC)c2F)Cc2cnc3[nH]c(CN4CCOCC4)cc3c21` [Form IX] yielded a solubility at 24 h ([3]; 25 °C, solvent MTBE, stirred 24 h, HPLC, read-out: Solubility at 25° C.) of 50 µg/mL (≈ 0.103 mM).
Molecule `CCN1C(=O)N(c2c(F)c(OC)cc(OC)c2F)Cc2cnc3[nH]c(CN4CCOCC4)cc3c21` [Form X] has a solubility at 24 h ([2]; 25 °C, solvent EtOAc, read-out: Solubility at 25° C.) of 700 µg/mL (≈ 1.44 mM).
`CCN1C(=O)N(c2c(F)c(OC)cc(OC)c2F)Cc2cnc3[nH]c(CN4CCOCC4)cc3c21` [Form XI] showed a solubility at 24 h ([3]; 25 °C, solvent Ethyl formate, stirred 24 h, HPLC, read-out: Solubility at 25° C.) of 4160 µg/mL (≈ 8.53 mM).
